Activity calls are given as the source filed them. The calls are words filed in the database; no cut-off is given here.
Columns and labels:
[1] = target: T1, Protein deacetylase HDAC6 (Homo sapiens) (UniProt Q9UBN7); experiment: Inhibition of HDAC6 (unknown origin) using p53 residues 379 to 382 [RHKK(Ac)] as fluorogenic substrate assessed as residual activity at 5.08 x 10^-10M (reference value: 101.06%); conditions: dose 5.08 10^-10M
T1 sequence (whole entry): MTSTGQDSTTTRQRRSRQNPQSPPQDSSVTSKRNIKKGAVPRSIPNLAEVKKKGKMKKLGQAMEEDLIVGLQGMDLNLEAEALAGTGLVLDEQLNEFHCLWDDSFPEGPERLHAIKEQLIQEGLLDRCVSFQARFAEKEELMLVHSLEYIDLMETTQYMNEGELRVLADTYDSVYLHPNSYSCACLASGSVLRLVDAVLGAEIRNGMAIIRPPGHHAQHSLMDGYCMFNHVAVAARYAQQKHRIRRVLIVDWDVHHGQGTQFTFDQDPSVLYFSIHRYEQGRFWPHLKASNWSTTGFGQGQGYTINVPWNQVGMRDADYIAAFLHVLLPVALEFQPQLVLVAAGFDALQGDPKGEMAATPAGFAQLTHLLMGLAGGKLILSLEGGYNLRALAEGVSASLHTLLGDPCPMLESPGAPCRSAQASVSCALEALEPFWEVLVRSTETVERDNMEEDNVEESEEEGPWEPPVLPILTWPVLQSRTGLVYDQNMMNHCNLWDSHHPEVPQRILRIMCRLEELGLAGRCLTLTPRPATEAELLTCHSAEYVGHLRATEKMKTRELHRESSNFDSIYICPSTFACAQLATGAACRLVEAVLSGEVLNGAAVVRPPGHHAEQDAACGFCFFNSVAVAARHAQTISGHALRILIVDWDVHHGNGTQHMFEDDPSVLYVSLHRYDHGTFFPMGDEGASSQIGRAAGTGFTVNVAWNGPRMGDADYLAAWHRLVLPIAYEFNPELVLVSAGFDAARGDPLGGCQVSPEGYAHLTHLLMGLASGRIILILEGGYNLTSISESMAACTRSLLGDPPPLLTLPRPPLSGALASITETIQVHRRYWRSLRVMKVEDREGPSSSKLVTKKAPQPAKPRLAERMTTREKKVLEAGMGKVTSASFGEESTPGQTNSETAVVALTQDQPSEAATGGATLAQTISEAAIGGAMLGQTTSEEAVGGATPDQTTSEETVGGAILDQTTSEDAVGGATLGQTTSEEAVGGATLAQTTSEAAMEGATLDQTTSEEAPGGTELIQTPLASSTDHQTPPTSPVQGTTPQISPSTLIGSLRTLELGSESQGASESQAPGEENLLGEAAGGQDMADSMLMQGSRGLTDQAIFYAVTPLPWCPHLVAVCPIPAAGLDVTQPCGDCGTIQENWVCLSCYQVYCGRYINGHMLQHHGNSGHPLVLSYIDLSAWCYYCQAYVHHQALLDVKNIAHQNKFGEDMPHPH

[2] = target: T2, Polyamine deacetylase HDAC10 (Homo sapiens) (UniProt Q969S8); experiment: Inhibition of HDAC10 (unknown origin) assessed as residual activity at 4.57 x 10^-9M (reference value: 101.54%); conditions: dose 4.57 10^-9M
T2 sequence (whole entry): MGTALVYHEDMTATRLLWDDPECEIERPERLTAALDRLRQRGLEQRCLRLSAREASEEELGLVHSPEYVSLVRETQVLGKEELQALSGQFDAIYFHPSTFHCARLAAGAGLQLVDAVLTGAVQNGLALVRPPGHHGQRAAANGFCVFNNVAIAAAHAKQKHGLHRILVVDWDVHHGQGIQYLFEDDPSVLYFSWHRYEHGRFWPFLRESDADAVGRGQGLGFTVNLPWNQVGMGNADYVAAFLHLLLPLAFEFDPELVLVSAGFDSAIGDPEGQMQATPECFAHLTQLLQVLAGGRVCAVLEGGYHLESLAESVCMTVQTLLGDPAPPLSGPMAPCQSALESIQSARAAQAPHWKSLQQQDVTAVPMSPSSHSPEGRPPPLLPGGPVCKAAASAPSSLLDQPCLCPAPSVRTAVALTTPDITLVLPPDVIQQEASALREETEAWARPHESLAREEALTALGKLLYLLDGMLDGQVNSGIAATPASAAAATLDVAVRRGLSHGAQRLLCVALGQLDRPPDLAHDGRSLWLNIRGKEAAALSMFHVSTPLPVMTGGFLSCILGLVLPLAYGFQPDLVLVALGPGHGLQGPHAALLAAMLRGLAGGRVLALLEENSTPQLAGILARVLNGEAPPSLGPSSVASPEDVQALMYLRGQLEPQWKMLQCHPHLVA

[3] = target: Histone deacetylase 9 (Homo sapiens) (UniProt Q9UKV0); experiment: Inhibition of HDAC9 (unknown origin) assessed as residual activity at 1.1 x 10^-6M (reference value: 97.55%); conditions: dose 1.1 10^-6M
Histone deacetylase 9 (Homo sapiens), sequence (Q9UKV0 whole entry): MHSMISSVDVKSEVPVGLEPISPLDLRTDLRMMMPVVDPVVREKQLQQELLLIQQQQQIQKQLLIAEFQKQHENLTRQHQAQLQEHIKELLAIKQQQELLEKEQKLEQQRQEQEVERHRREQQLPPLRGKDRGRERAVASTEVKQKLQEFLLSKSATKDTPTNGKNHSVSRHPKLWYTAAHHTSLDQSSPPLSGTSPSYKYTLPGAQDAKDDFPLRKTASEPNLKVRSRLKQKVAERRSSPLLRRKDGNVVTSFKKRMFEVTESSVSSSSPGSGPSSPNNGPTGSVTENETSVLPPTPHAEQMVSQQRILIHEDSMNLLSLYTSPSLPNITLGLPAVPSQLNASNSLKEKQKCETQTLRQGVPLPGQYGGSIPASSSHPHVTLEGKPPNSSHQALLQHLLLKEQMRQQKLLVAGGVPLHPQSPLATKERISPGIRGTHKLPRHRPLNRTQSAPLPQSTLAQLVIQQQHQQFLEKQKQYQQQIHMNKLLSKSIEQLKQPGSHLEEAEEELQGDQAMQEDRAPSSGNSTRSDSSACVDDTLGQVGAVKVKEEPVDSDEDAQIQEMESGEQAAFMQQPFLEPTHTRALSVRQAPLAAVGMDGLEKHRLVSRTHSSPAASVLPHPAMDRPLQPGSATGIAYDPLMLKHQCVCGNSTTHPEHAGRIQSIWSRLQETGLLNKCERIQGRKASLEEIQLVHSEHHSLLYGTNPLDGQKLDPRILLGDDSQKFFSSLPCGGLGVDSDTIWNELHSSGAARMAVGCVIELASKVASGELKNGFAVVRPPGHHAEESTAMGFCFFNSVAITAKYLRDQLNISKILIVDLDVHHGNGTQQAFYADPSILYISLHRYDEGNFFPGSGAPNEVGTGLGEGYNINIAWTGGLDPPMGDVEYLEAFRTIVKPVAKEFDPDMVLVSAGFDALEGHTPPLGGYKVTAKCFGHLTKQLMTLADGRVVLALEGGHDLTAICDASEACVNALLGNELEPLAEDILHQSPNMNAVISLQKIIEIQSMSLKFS

[4] = target: T3, Histone deacetylase 8 (Homo sapiens) (UniProt Q9BY41); experiment: Inhibition of HDAC8 (unknown origin) assessed as residual activity at 1.1 x 10^-6M (reference value: 100%); conditions: dose 1.1 10^-6M
T3 sequence (whole entry): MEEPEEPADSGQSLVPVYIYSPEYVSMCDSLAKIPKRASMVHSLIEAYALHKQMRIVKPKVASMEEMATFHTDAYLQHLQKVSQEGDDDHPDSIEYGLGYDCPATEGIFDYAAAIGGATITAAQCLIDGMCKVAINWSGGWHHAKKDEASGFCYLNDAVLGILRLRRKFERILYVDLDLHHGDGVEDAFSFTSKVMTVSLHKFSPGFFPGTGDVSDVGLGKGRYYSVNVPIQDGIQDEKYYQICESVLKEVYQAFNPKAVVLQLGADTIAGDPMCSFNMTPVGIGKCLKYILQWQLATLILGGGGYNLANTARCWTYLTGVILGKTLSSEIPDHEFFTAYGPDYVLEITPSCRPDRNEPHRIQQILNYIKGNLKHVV

[5] = target: T2, Polyamine deacetylase HDAC10 (Homo sapiens); experiment: Inhibition of HDAC10 (unknown origin) assessed as residual activity at 3.33 x 10^-6M (reference value: 101.54%); conditions: dose 3.33 10^-6M
HL-60 [6] = experiment: Induction of cell cycle arrest in G0/G1 phase in human HL-60 cells assessed as downregulation of AKT protein expression at 0.5 to 1 times IC50 by Western blot analysis; type: functional, cell-based
HL-60 [7] = experiment: Downregulation of HDAC2 protein expression in human HL-60 cells at 0.5 to 1 times IC50 by Western blot analysis; type: functional, cell-based
[8] = target: T2, Polyamine deacetylase HDAC10 (Homo sapiens); experiment: Inhibition of HDAC10 (unknown origin) assessed as residual activity at 1 x 10^-5M (reference value: 101.54%); conditions: dose 1.0 10^-5M
HL-60 [9] = experiment: Downregulation of HDAC3 protein expression in human HL-60 cells at 0.5 to 1 times IC50 by Western blot analysis; type: functional, cell-based
HL-60 [10] = experiment: Induction of autophagy in human HL-60 cells assessed as increase in autophagic flux by measuring increase in red-stained cells at 0.5 to 1 times IC50 by acridine orange staining based microscopic analysis; type: functional, cell-based
HL-60 [11] = experiment: Downregulation of HDAC2 protein expression in human HL-60 cells by Western blot analysis; type: functional, cell-based; conditions: dose 0.2-5 µM

NC(=O)c1cccc2[nH]c(-c3ccc(NCc4ccc(C(=O)Nc5ccccc5N)cc4)cc3)nc12
Activity [1]: 101%
Activity [2]: 98.8%
Activity [3]: 93%
Activity [4]: 104%
Activity [5]: 101%
Activity (HL-60 [6]): Active
Activity (HL-60 [7]): Active
Activity [8]: 72.2%
Activity (HL-60 [9]): Active
Activity (HL-60 [10]): Active
Activity (HL-60 [11]): Dose-Dependent Effect

Reference: ChEMBL document CHEMBL5550160, “Leveraging a rationally designed veliparib-based anilide eliciting anti-leukemic effects for the design of pH-responsive polymer nanoformulation” (Eur J Med Chem, 2024)
